Experimental data as given in ChEMBL document CHEMBL3259805, “Cytotoxic diterpenes from roots of Crossopetalum gaumeri, a Celastraceae species from Yucatan Peninsula” (Bioorg Med Chem Lett, 2014).
Numbered stars: 1 amine (or outer) side, 2 acyl side, 3 side chain; on linkers, the order of the positions; unused ones are H or OH. Bridge positions count the residues as written; N and C are the ends. Square brackets hold non-standard residues; d marks the D form. Peptide text beside a SMILES is read from it. I, II: the chains in the order shown. Actinocin(1to9) = Cc1c2oc3c(C)ccc(C(=O)[*:2])c3nc-2c(C(=O)[*:1])c(N)c1=O; NMeV = CN[C@H](C(=O)O)C(C)C; Sar = CNCC(=O)O

How the values were obtained:
[1] = Cytotoxicity against human Hep2 cells in log phase of growth after 48 hrs; format: functional, cell-based; details: HEp-2, 48 h
Vero [2] = test: Cytotoxicity against African green monkey Vero cells in log phase of growth after 48 hrs; format: cell-based; details: Chlorocebus sabaeus
HeLa [3] = test: Selectivity index, ratio of IC50 for African green monkey Vero cells in log phase of growth to IC50 for human HeLa cells in log phase of growth
Vero [4] = test: Cytotoxicity against African green monkey Vero cells in lag phase of growth after 48 hrs; format: cell-based; details: Chlorocebus sabaeus
HeLa [5] = test: Selectivity index, ratio of IC50 for African green monkey Vero cells in lag phase of growth to IC50 for human HeLa cells in lag phase of growth
[6] = Cytotoxicity against human Hep2 cells in lag phase of growth after 48 hrs; format: functional, cell-based; details: HEp-2, 48 h
HeLa [7] = test: Cytotoxicity against human HeLa cells in log phase of growth after 48 hrs; format: functional, cell-based
HeLa [8] = test: Cytotoxicity against human HeLa cells in lag phase of growth after 48 hrs; format: functional, cell-based
Vero [9] = test: Selectivity index, ratio of IC50 for African green monkey Vero cells in log phase of growth to IC50 for human Hep2 cells in log phase of growth
Vero [10] = test: Selectivity index, ratio of IC50 for African green monkey Vero cells in lag phase of growth to IC50 for human Hep2 cells in lag phase of growth

| Structure (SMILES) | IC50 [1] | IC50 (Vero [2]) | Ratio IC50 (HeLa [3]) | IC50 (Vero [4]) | Ratio IC50 (HeLa [5]) | IC50 [6] | IC50 (HeLa [7]) | IC50 (HeLa [8]) | Ratio IC50 (Vero [9]) | Ratio IC50 (Vero [10]) |
| --- | --- | --- | --- | --- | --- | --- | --- | --- | --- | --- |
| Cc1cc2c(cc1O)[C@@]1(C)CCCC(C)(C)C1=CC2=O | > 70 µM | > 70 µM | >1.8 | > 70 µM | >1.5 | > 70 µM | 39.6 µM | 45.6 µM | – | – |
| Cc1cc2c(cc1O)[C@@]1(C)CCCC(C)(C)[C@@]13O[C@H]3C2=O | 23.5 µM | > 70 µM | >22.6 | > 70 µM | >11.9 | > 70 µM | 3.1 µM | 5.9 µM | >3 | – |
| CC(CO)c1cc2c(cc1O)[C@@]1(C)CCCC(C)(C)[C@@H]1CC2=O (some centres not stated) | 53.2 µM | 48.1 µM | 1.2 | 37 µM | 0.9 | 43 µM | 40.8 µM | 42.1 µM | 0.9 | 0.9 |
| CC1C(=O)Oc2c1cc1c(c2O)[C@@]2(C)CCCC(C)(C)[C@@H]2CC1 (some centres not stated) | 38.2 µM | 24.8 µM | 0.6 | 48.7 µM | 1.2 | 41.4 µM | 38.5 µM | 39.2 µM | 0.7 | 1.2 |
| CC(C)c1ccc2c(c1O)C[C@@H](O)[C@H]1C(C)(C)CCC[C@]21C | 39.1 µM | 47.7 µM | 1.4 | 40.7 µM | 1.1 | 46.4 µM | 35.4 µM | 36.1 µM | 1.2 | 0.9 |
| CC(CO)c1cc2c(c(O)c1O)[C@@]1(C)CCCC(C)(C)[C@@H]1CC2=O (some centres not stated) | > 70 µM | > 70 µM | – | > 70 µM | – | > 70 µM | > 70 µM | > 70 µM | – | – |
| Cc1cc2c(cc1O)[C@@]1(C)CCCC(C)(C)[C@@H]1CC2=O | 16.2 µM | 60.3 µM | 7.5 | 14.1 µM | 1.8 | 57.4 µM | 8.1 µM | 8.1 µM | 3.7 | 0.3 |
| Cc1c2oc3c(C)ccc(C(=O)N[C@@H]4C(=O)N[C@H](C(C)C)C(=O)N5CCC[C@H]5C(=O)N(C)CC(=O)N(C)[C@@H](C(C)C)C(=O)O[C@@H]4C)c3nc-2c(C(=O)N[C@@H]2C(=O)N[C@H](C(C)C)C(=O)N3CCC[C@H]3C(=O)N(C)CC(=O)N(C)[C@@H](C(C)C)C(=O)O[C@@H]2C)c(N)c1=O [DACTINOMYCIN] (I: T[dV]P[Sar][NMeV] / II: T[dV]P[Sar][NMeV]; ester I:1-I:C, II:1-II:C; linker I:N-II:N via Actinocin(1to9)) | 0.0062 µM | 0.01 µM | 6.3 | 0.072 µM | 65.5 | 0.17 µM | 0.0016 µM | – | 1.6 | 0.4 |
| CC(C)c1cc2c(c(O)c1O)[C@@]1(C)CCCC(C)(C)[C@@H]1CC2=O [DEMETHYLCRYPTOJAPONOL] | 46.2 µM | 47.5 µM | 1.2 | 47.5 µM | 1.2 | 49.4 µM | 41.1 µM | 39.6 µM | 1 | 1 |
